From US4906659A, “Antibiotic tan-749, its derivatives, production and use thereof” (Takeda Chemical Industries, Ltd., priority 1985, dated 1990)
≈ marks a conversion by molar mass, not a printed value. Counter-ions that a name gives are not always drawn.

Legend:
S. aureus 308A-1 [1] = test: Antibacterial activity against gram-positive bacteria, MIC (Table 3); format: cell-based; conditions: Staphylococcus aureus, 308A1; Tripticase Soy Agar; inoculum size 10^8 cfu/ml
Excerpt: The antibacterial activities against gram-positive bacteria (S. aureus 308A-1) of some compounds of the invention are as shown in Table 3.
*Medium: Tripticase Soy Agar Inoculum size: 10^8 cfu/ml

S. aureus 308A-1 [2] = test: Antibacterial activity in mice, ED50 (Table 3); format: in vivo; conditions: Staphylococcus aureus, 308A1, sc, S.C.
Excerpt: The antibacterial activities against gram-positive bacteria (S. aureus […]-1) of some compounds of the invention are as shown in Table 3. | **mice, S.C.,

Solubility = format: physicochemical
pKa' value = format: physicochemical; conditions: dihydrochloride
Escherichia coli 0-111 = test: Therapeutic effect on infectious disease in mice (Table G); format: in vivo; conditions: Escherichia coli, 0111, sc, dihydrochloride, bacteria infected intraperitoneally, subcutaneous administration
[3] = test system: Staphylococcus aureus 308A-1; test: as above; format: in vivo; conditions: bacteria infected intraperitoneally
Escherichia coli T7 = test: Antibacterial spectrum, minimal inhibitory concentration, agar dilution (Table E); format: cell-based; conditions: dihydrochloride, medium TSA, inoculum a loopful of 10^8 CFU/ml
Excerpt: (§1) Tables D and E show the antibacterial spectra of TAN-749A, B, C and D (dihydrochlorides) against various microorganisms.
(§2) (Note 1) Determined by the agar dilution method. Inoculum size was a
(§3) loopful of 10^8 CFU/ml.
(§4) (Note 2) TSA (Tripticase Soy Agar; Baltimore Biological Laboratories,
(§5) USA), B--TSA; 10% horse serum/TSA

[4] = test system: Staphylococcus aureus FDA209P; test: as above; format: cell-based; conditions: dihydrochloride, medium B--TSA (10% horse serum/TSA), inoculum a loopful of 10^8 CFU/ml
Excerpt: as §1, §2, §3, §4, §5

[5] = test system: Pseudomonas aeruginosa P9; test: as above; format: cell-based; conditions: dihydrochloride, medium B--TSA (10% horse serum/TSA), inoculum a loopful of 10^8 CFU/ml
Excerpt: as §1, §2, §3, §4, §5

[6] = test system: Staphylococcus aureus 308A-1; test: as above; format: cell-based; conditions: 308A1, dihydrochloride, medium TSA, inoculum a loopful of 10^8 CFU/ml
Excerpt: as §1, §2, §3, §4, §5

[7] = test system: Streptococcus pyogenes E-14; test: as above; format: cell-based; conditions: E14, dihydrochloride, medium B--TSA (10% horse serum/TSA), inoculum a loopful of 10^8 CFU/ml
Excerpt: as §1, §2, §3, §4, §5

[8] = test system: Klebsiella pneumoniae IFO 3317; test: Antibacterial spectrum, minimal inhibitory concentration (Table D); format: cell-based; conditions: IFO3317, dihydrochloride, Bacto-Antibiotic Medium 3 agar, inoculum a loopful of approx. 10^6 CFU/ml
Method: as §1
(§6) Bacto-Antibiotic Medium 3
(§7) Distilled water 1,000 ml
(§8) Inoculum size a loopful of approx.

[9] = test system: Acinetobacter calcoaceticus IFO 13006; test: as above; format: cell-based; conditions: IFO13006, dihydrochloride, Bacto-Antibiotic Medium 3 agar, inoculum a loopful of approx. 10^6 CFU/ml
Method: as §1, §6, §7, §8

[10] = test system: Alcaligenes faecalis IFO 13111; test: as above; format: cell-based; conditions: IFO13111, dihydrochloride, Bacto-Antibiotic Medium 3 agar, inoculum a loopful of approx. 10^6 CFU/ml
Method: as §1, §6, §7, §8

[11] = test system: Proteus morganii IFO 3168; test: as above; format: cell-based; conditions: Morganella morganii, IFO3168; dihydrochloride; Bacto-Antibiotic Medium 3 agar; inoculum a loopful of approx. 10^6 CFU/ml
Method: as §1, §6, §7, §8

[12] = test system: Staphylococcus aureus FDA 209P; test: as above; format: cell-based; conditions: FDA209P, dihydrochloride, Bacto-Antibiotic Medium 3 agar, inoculum a loopful of approx. 10^6 CFU/ml
Method: as §1, §6, §7, §8

[13] = test system: Proteus vulgaris IFO 3988; test: as above; format: cell-based; conditions: IFO3988, dihydrochloride, Bacto-Antibiotic Medium 3 agar, inoculum a loopful of approx. 10^6 CFU/ml
Method: as §1, §6, §7, §8

[14] = test system: Citrobacter freundii IFO 12681; test: as above; format: cell-based; conditions: IFO12681, dihydrochloride, Bacto-Antibiotic Medium 3 agar, inoculum a loopful of approx. 10^6 CFU/ml
Method: as §1, §6, §7, §8

[15] = test system: Pseudomonas aeruginosa IFO 3080; test: as above; format: cell-based; conditions: IFO3080, dihydrochloride, Bacto-Antibiotic Medium 3 agar, inoculum a loopful of approx. 10^6 CFU/ml
Method: as §1, §6, §7, §8

[16] = test system: Escherichia coli NIHJ JC2; test: as above; format: cell-based; conditions: NIHJJC2, dihydrochloride, Bacto-Antibiotic Medium 3 agar, inoculum a loopful of approx. 10^6 CFU/ml
Method: as §1, §6, §7, §8

[17] = test system: Pseudomonas aeruginosa P-9; test: Therapeutic effect on infectious disease in mice (Table G); format: in vivo; conditions: P9, sc, dihydrochloride, bacteria infected intraperitoneally, subcutaneous administration
[18] = Preliminary acute toxicities in mice (Table H); conditions: mouse, in vivo, sc, dihydrochloride, subcutaneous
[19] = 308A1, sc, dihydrochloride, subcutaneous administration

SMILES	MIC (S. aureus 308A-1 [1]) [µg/mL]	ED50 (S. aureus 308A-1 [2]) [mg/kg]	ED50 [3, 19] [mg/kg]	MIC (Escherichia coli T7) [µg/mL]	MIC [4] [µg/mL]	MIC [5] [µg/mL]	MIC [6] [µg/mL]	MIC [7] [µg/mL]	MIC [8] [µg/mL]	MIC [9] [µg/mL]	MIC [10] [µg/mL]	MIC [11] [µg/mL]	MIC [12] [µg/mL]	MIC [13] [µg/mL]	MIC [14] [µg/mL]	MIC [15] [µg/mL]	MIC [16] [µg/mL]	further results
C/C=C\C=C\C(=O)NCC(O)CC(N)CC(=O)NCCC(=N)N (centres unmarked) [TAN-749A dihydrochloride]																		Solubility: Soluble (Solubility; dihydrochloride): Water, Dimethyl sulfoxide, Methanol; Solubility: Sparingly soluble (Solubility; dihydrochloride): Acetone, Ethyl acetate, Diethyl ether; pKa (pKa' value): 8
C/C=C/C=C/C(=O)NCC(O)CC(N)CC(=O)NCCC(=N)N (centres unmarked) [III]			12.5	> 100	> 100	100 (≈ 307 µM)	> 100	100 (≈ 307 µM)	> 100	> 100	12.5 (≈ 38.4 µM)	> 100	> 100	100 (≈ 307 µM)	> 100	50 (≈ 154 µM)	> 100	ED50 (Escherichia coli 0-111): 50 mg/kg
C/C=C\C=C\C(=O)NC(C)C(O)CC(N)CC(=O)NCCC(=N)N (centres unmarked) [II]			0.351	12.5 (≈ 36.8 µM)	3.13 (≈ 9.22 µM)	50 (≈ 147 µM)	3.13 (≈ 9.22 µM)	6.25 (≈ 18.4 µM)	100 (≈ 295 µM)	50 (≈ 147 µM)	6.25 (≈ 18.4 µM)	100 (≈ 295 µM)	12.5 (≈ 36.8 µM)	25 (≈ 73.7 µM)	≥ 100	50 (≈ 147 µM)	> 100	ED50 (Escherichia coli 0-111): 27.3 mg/kg; ED50 [17]: 61.4 mg/kg; LD50 [18]: 400 to 800 mg/kg; ED50 ([3]; 308A1, dihydrochloride, oral administration): 16.2 mg/kg
C/C=C/C=C/C(=O)NC(C)C(O)CC(N)CC(=O)NCCC(=N)N (centres unmarked) [TAN-749D dihydrochloride]																		Solubility (by reference to TAN-749A dihydrochloride) (Solubility): Same with TAN-749A dihydrochloride
C/C=C/C=C/C(=O)NC(C)C(O)CC(N)CC(=O)NCCC(=N)N (centres unmarked) [IV]			< 6.25	50 (≈ 147 µM)	25 (≈ 73.7 µM)	100 (≈ 295 µM)	25 (≈ 73.7 µM)	25 (≈ 73.7 µM)	> 100	> 100	6.25 (≈ 18.4 µM)	> 100	50 (≈ 147 µM)	100 (≈ 295 µM)	> 100	100 (≈ 295 µM)	> 100	

Continued, in another order:

MIC (S. aureus 308A-1 [1]) [µg/mL]	SMILES	ED50 (S. aureus 308A-1 [2]) [mg/kg]	ED50 [3, 19] [mg/kg]	MIC (Escherichia coli T7) [µg/mL]	MIC [4] [µg/mL]	MIC [5] [µg/mL]	MIC [6] [µg/mL]	MIC [7] [µg/mL]	MIC [8] [µg/mL]	MIC [9] [µg/mL]	MIC [10] [µg/mL]	MIC [11] [µg/mL]	MIC [12] [µg/mL]	MIC [13] [µg/mL]	MIC [14] [µg/mL]	MIC [15] [µg/mL]	MIC [16] [µg/mL]	further results
> 100	C/C=C\C=C\C(=O)NCC(O)CC(CC(=O)NCCC(=N)N)NC (centres unmarked) [compound 80]																	
> 100	C/C=C\C=C(/C)C(=O)NC[C@H](O)C[C@@H](N)CC(=O)NCCC(=N)N [101b]	7.02																
> 100	C/C=C\C=C\C(=O)NC[C@H](O)C[C@@H](N)CC(=O)NCC(C)C(=N)N (some centres unmarked) [124b]	7.2																
> 100	CN(CC(=O)O)NC(=O)C[C@H](N)C[C@@H](O)CN [Negamycin, 2-(3R,5R)-3,6-diamino-5-hydroxyhexanoyl-1-methylhydrazinoacetic acid, reference compound]																	
> 100	C/C=C\C=C\C(=O)NCC(O)CC(CC(=O)NCCC(=N)N)NCC (centres unmarked) [compound 82]	25																
